The record followed here is PubChem BioAssay (NCI).

Some test systems named below: RPMI-8226 leukemia; HOP-92 NSCLC; OVCAR-4 ovarian; U251 CNS; SNB-19 CNS; SF-295 CNS; HOP-62 NSCLC; RXF 393 renal; DMS 273 small cell lung; CAKI-1 renal; KM20L2 colon.
Common to all, as to test: NCI tumour cell line growth inhibition, 48 h

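Test compounds were applied to cells in 96-well plates for 48 hours at 5 doses. The concentration for full growth arrest is given as TGI.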 Where a SMILES comes first, the peptide text is derived from it. [ ]: non-standard residue; d: D form. The star is where a group is joined. Phe(4-NO2) = N[CH](Cc1ccc([N+](=O)[O-])cc1)C(=O)O; Boc = CC(C)(C)OC(=O)*; OBn = c1ccc(CO*)cc1

In the case of `CC(=O)C1CC(C)=CCC12C(=O)Nc1ccccc12` (stereo not drawn), the TGI with RPMI-8226 leukemia, in the assay with HOP-92 NSCLC, with OVCAR-4 ovarian, in the assay on U251 CNS, in the assay on SNB-19 CNS and in the assay on SF-295 CNS was above 100 µM each time. The TGI in the assay on HOP-62 NSCLC is above 100 µM; with RXF 393 renal, 68.9 µM; with DMS 273 small cell lung, above 100 µM; with CAKI-1 renal, above 100 µM; with KM20L2 colon, above 100 µM.
In the case of `Cc1ccc(C(=O)N(C2CCCCC2)C2CCCCC2)cc1N=NN(C)C`, the TGI is above 100 µM in the assay on RPMI-8226 leukemia; 23.4 µM in the assay on HOP-92 NSCLC; 24 µM in the assay with OVCAR-4 ovarian; 34.1 µM in the assay with U251 CNS; 26.4 µM with SNB-19 CNS; 23.5 µM in the assay on SF-295 CNS. For the same compound, the TGI in the assay with HOP-62 NSCLC was 25.2 µM; in the assay with DMS 273 small cell lung it was 31.4 µM; in the assay on CAKI-1 renal it was 27.2 µM.
In the case of `O=C(c1ccc(Cl)cc1)c1ccc(OCC(=O)N2CCN(c3ccccc3)CC2)cc1`, the TGI in the assay on RPMI-8226 leukemia, in the assay with HOP-92 NSCLC, in the assay with OVCAR-4 ovarian, with U251 CNS, with SNB-19 CNS and in the assay with SF-295 CNS was above 100 µM each time. For the same compound, the TGI in the assay on HOP-62 NSCLC, with RXF 393 renal, in the assay on CAKI-1 renal and in the assay with KM20L2 colon was above 100 µM each time.
Turning to `COc1ccc2c3c1OC1CC(O)C=CC31CCN(C)C2` (stereo not drawn), the TGI in the assay with RPMI-8226 leukemia, in the assay with HOP-92 NSCLC, in the assay on OVCAR-4 ovarian, with U251 CNS, in the assay on SNB-19 CNS and in the assay with SF-295 CNS was above 150 µM in each case. Further, the TGI in the assay with HOP-62 NSCLC, in the assay on RXF 393 renal, in the assay on DMS 273 small cell lung, in the assay with CAKI-1 renal and in the assay on KM20L2 colon was above 150 µM each time.
Consider `COc1ccc2[nH]c3c(c2c1)CCN(C)CC3`, for which the TGI in the assay with RPMI-8226 leukemia, with HOP-92 NSCLC, with OVCAR-4 ovarian, in the assay with U251 CNS, in the assay with SNB-19 CNS and with SF-295 CNS was above 100 µM each time. Also, the TGI in the assay on HOP-62 NSCLC, in the assay on DMS 273 small cell lung, with CAKI-1 renal and with KM20L2 colon was above 100 µM throughout.
For the compound `CCCCOC(=O)CNC(=O)OCCCCC#CC#CCCCCOC(=O)NCC(=O)OCCCC`, the TGI with RPMI-8226 leukemia, with OVCAR-4 ovarian, in the assay on U251 CNS, in the assay on SNB-19 CNS, in the assay on SF-295 CNS and with HOP-62 NSCLC was above 100 µM each time. Also, the TGI in the assay with DMS 273 small cell lung, with CAKI-1 renal and in the assay on KM20L2 colon was above 100 µM in each case.
On to `CCCC/C=C1\CCC(CN2CCCCC2)C1=O` (stereo not drawn), for which the TGI with HOP-92 NSCLC turned out to be 21 µM; with OVCAR-4 ovarian it was 48 µM; in the assay with U251 CNS, 44.1 µM; with SNB-19 CNS it was 49.4 µM; in the assay on SF-295 CNS, 45.5 µM; in the assay with HOP-62 NSCLC it was 49.4 µM. For the same compound, the values for the TGI in the assay on RXF 393 renal, in the assay on CAKI-1 renal and in the assay on KM20L2 colon were 18.1 µM, 17.8 µM and 32.9 µM, respectively.
In the case of `COC1=CC(=O)c2ccccc2C1(CCC=C(C)C)C1=NC(C)(C)CO1` (stereo not drawn), the TGI in the assay on RPMI-8226 leukemia, in the assay on HOP-92 NSCLC, with OVCAR-4 ovarian, in the assay on U251 CNS, in the assay with SNB-19 CNS and in the assay with SF-295 CNS was above 100 µM in each case. The TGI in the assay on HOP-62 NSCLC, in the assay with RXF 393 renal, in the assay with DMS 273 small cell lung, with CAKI-1 renal and in the assay on KM20L2 colon was above 100 µM each time.
In the case of `CCOC/N=C(/N)NC#N`, the TGI in the assay with RPMI-8226 leukemia, in the assay on HOP-92 NSCLC, with U251 CNS, in the assay with SNB-19 CNS, in the assay on SF-295 CNS and with HOP-62 NSCLC was above 100 µM each time. Further, the TGI in the assay with RXF 393 renal, with DMS 273 small cell lung, in the assay on CAKI-1 renal and with KM20L2 colon was above 100 µM throughout.
As for `COc1cccc2cc(C)c(C(=O)c3ccccc3)nc12`, the TGI in the assay with RPMI-8226 leukemia, with OVCAR-4 ovarian, in the assay on U251 CNS, in the assay with SNB-19 CNS, in the assay on SF-295 CNS and with HOP-62 NSCLC was above 100 µM each time. Besides, the TGI with RXF 393 renal, in the assay on DMS 273 small cell lung, with CAKI-1 renal and with KM20L2 colon was above 100 µM throughout.
With `N/N=C(\C(=O)Nc1c(Cl)cc([N+](=O)[O-])cc1Cl)C(c1cnc2ccc([N+](=O)[O-])cc2n1)[N+](=O)[O-]` (stereo not drawn), the TGI in the assay with RPMI-8226 leukemia, in the assay with HOP-92 NSCLC, in the assay with OVCAR-4 ovarian, in the assay on U251 CNS, in the assay on SNB-19 CNS and with SF-295 CNS was above 100 µM each time. Moreover, the TGI in the assay on HOP-62 NSCLC, with RXF 393 renal, in the assay with DMS 273 small cell lung, with CAKI-1 renal and with KM20L2 colon was above 100 µM each time.
With `COC(=O)Cc1ccc2c(c1)Sc1ccc(CC(=O)OC)cc1N2C`, the TGI is above 100 µM in the assay on RPMI-8226 leukemia; above 100 µM with HOP-92 NSCLC; above 100 µM in the assay on OVCAR-4 ovarian; above 100 µM in the assay with U251 CNS; above 100 µM in the assay with SNB-19 CNS; above 87.1 µM in the assay with SF-295 CNS. Moreover, the results for the TGI in the assay on HOP-62 NSCLC, in the assay with RXF 393 renal and in the assay with CAKI-1 renal were above 100 µM, above 100 µM and 52 µM, respectively.
As for `O=C(NCCN(CCNC(=O)c1cccc(=O)n1O)CCN(CCNC(=O)c1cccc(=O)n1O)CCNC(=O)c1cccc(=O)n1O)c1cccc(=O)n1O`, the TGI with RPMI-8226 leukemia, with HOP-92 NSCLC, in the assay with OVCAR-4 ovarian, in the assay on U251 CNS, in the assay with SNB-19 CNS and with SF-295 CNS was above 100 µM in each case. In addition, the TGI in the assay on HOP-62 NSCLC, in the assay with RXF 393 renal and with CAKI-1 renal was above 100 µM in each case.
In the case of `CC1(C)OC2OC(COC(=O)C=[N+]=[N-])C3OC(C)(C)OC3C2O1` (stereo not drawn), the TGI in the assay on RPMI-8226 leukemia, in the assay with HOP-92 NSCLC, with OVCAR-4 ovarian, in the assay on U251 CNS, with SNB-19 CNS and in the assay with SF-295 CNS was above 100 µM in each case. Moreover, the TGI in the assay with HOP-62 NSCLC, in the assay on RXF 393 renal and with CAKI-1 renal was above 100 µM throughout.
On to `N=C(N)SCCON1C(=O)c2ccccc2C1=O`, for which the TGI in the assay with RPMI-8226 leukemia, in the assay with HOP-92 NSCLC, in the assay on OVCAR-4 ovarian, in the assay on U251 CNS, in the assay on SNB-19 CNS and in the assay with SF-295 CNS was above 100 µM in each case. Also, the TGI in the assay with HOP-62 NSCLC, with RXF 393 renal and in the assay on CAKI-1 renal was above 100 µM each time.
Regarding `COc1ccc(N2C=Nn3c(nc4sc(C)c(C)c4c3=O)C2)cc1`, the TGI in the assay with RPMI-8226 leukemia, in the assay with HOP-92 NSCLC, in the assay with OVCAR-4 ovarian, in the assay with U251 CNS, with SNB-19 CNS and with SF-295 CNS was above 100 µM in each case. In addition, the TGI in the assay with HOP-62 NSCLC, in the assay on RXF 393 renal and with CAKI-1 renal was above 100 µM each time.
On to `COC(=O)CCC(NC(=O)OC(C)(C)C)C(=O)NC(Cc1ccc([N+](=O)[O-])cc1)C(=O)NCC(=O)OCc1ccccc1` (stereo not drawn) (Boc-Glu(OMe)-[Phe(4-NO2)]-Gly-OBn; configuration not given here), for which the TGI was above 100 µM in the assay on RPMI-8226 leukemia; above 95.1 µM in the assay on HOP-92 NSCLC; above 100 µM in the assay with OVCAR-4 ovarian; above 100 µM in the assay on U251 CNS; above 100 µM in the assay on SNB-19 CNS; above 74.1 µM in the assay on SF-295 CNS. Moreover, the results for the TGI in the assay with HOP-62 NSCLC, in the assay on RXF 393 renal and with CAKI-1 renal were above 77.6 µM, above 72.8 µM and above 100 µM, respectively.
`CCCCCc1cc(OC(=O)c2c(O)cc(OC)cc2CCCCC)cc(O)c1C(=O)O`: the TGI in the assay on RPMI-8226 leukemia was determined as 71.2 µM; with HOP-92 NSCLC it was 31 µM; in the assay with OVCAR-4 ovarian it was 41.3 µM; in the assay on U251 CNS, 29.1 µM; in the assay on SNB-19 CNS, 25.5 µM; in the assay on SF-295 CNS, 35.4 µM. The TGI in the assay with HOP-62 NSCLC was 30.7 µM; with RXF 393 renal, 30.8 µM; in the assay with DMS 273 small cell lung, 32.4 µM; in the assay with CAKI-1 renal, 34.5 µM; with KM20L2 colon it was 33.3 µM.
Turning to `COc1cc(OC)c2c(O)cc(CC(C)O)cc2c1` (stereo not drawn), the TGI in the assay on RPMI-8226 leukemia, in the assay on HOP-92 NSCLC, with OVCAR-4 ovarian, in the assay on U251 CNS, with SNB-19 CNS and with SF-295 CNS was above 100 µM throughout. In addition, the TGI with HOP-62 NSCLC, with RXF 393 renal, with DMS 273 small cell lung, with CAKI-1 renal and with KM20L2 colon was above 100 µM throughout.
In the case of `O=C1C(Br)=CC2([N+](=O)[O-])CCNc3c(O)c4c5c(c3C2=C1Br)=NCCC=5C=N4` (stereo not drawn), the TGI was 0.761 µM in the assay with RPMI-8226 leukemia; 2.07 µM with HOP-92 NSCLC; 3.7 µM in the assay on OVCAR-4 ovarian; 3.96 µM in the assay with U251 CNS; 9.72 µM in the assay on SNB-19 CNS; 4.63 µM in the assay with SF-295 CNS. Further, the TGI in the assay with HOP-62 NSCLC was found to be 11 µM; in the assay with RXF 393 renal, 7.76 µM; with DMS 273 small cell lung, 6.92 µM; in the assay with CAKI-1 renal it was 5.25 µM; in the assay on KM20L2 colon, 10.4 µM.
